Data on five molecules can be found in patent US20110306040A1, “CPG RECEPTOR (CPG-R) AND METHODS RELATING THERETO” (priority 1999, published 2011).

For series [1], the system named is MyD88. The series is described as follows: κB-Luc assay in RAW 264.7 cells co-transfected with dominant-negative MyD88lpr. Type of series: cell-based, mouse. Conditions: κB-Luc:MyD88lpr 10:1 or 1:1, oligonucleotides 4 μM, MPL 1 μg/ml, LPS 1 μg/ml.
Series [2] concerns NF-κB. The series is described as follows: κB-Luc assay in RAW 264.7 macrophages. Particulars: for κB-dependent luciferase expression: RAW 264.7 transfected with κB-Luc, IL-1 20 ng/ml, MPL 1 μg/ml, oligonucleotides 4 μM, normalized to untreated transfected cells. Type of series: cell-based, mouse. The method, then: RAW 264.7 cells were seeded into 6-well plates (Corning) at a density of 3×10^5 cells per well 24 hours prior to transfection. Plasmids used in transfection were pNF-κB-Luc (Clontech) and pCR3. V64-Met-Flag-MyD88lpr (kindly provided by Jurgen Tschopp; described in (Burns et al., J. Biol. Chem., 1998, 273, 12203-9). Total plasmid DNA concentration was normalized across all wells by addition of empty vector (pCMVKm2, Chiron). Cells were transfected with stated concentrations of DNA in Opti-MEM I (Gibco BRL) with […] of LipofectAMINE (Gibco BRL) per well according to manufacturer's instructions. Cells were incubated with the transfection mixture 3 hours at 37° C., then culture media was replaced and cells were allowed to recover overnight. The following day transfected cells were treated in culture media at 37° C., 5% CO2 with phosphorothioate oligonucleotides, MPL, LPS, or cytokines at indicated concentrations and times. Cells were washed once with cold phosphate buffered saline (PBS), and lysed with Reporter Lysis BufferJ (Promega). Luciferase activity in lysate supematants was determined using Microlite 2 plates (Dynex) and a ML 3000 Luminometer (Dynatech) all according to manufacture's instructions. For detection of FLAG-MyD88lpr expression, the insoluble pellet from transfected RAW 264.7 cells was resuspended in Triton lysis buffer and sonicated 10 minutes prior to addition of sample buffer and boiling. After separation and transfer to nitrocellulose, membranes were immunoblotted using FLAG M2 (Sigma) antibody.
To directly evaluate κB-dependent transcription induced by CpG oligonucleotide or MPL treatment, RAW 264.7 macrophage were transfected with an NF-κB-inducible reporter plasmid encoding luciferase under the control of multiple copies of the kappa light chain enhancer (κB-Luc) and the following day treated with adjuvants or cytokines. In particular, RAW 264.7 cells were transfected with a kB-driven luciferase reporter gene and treated 24 hours later with IL-1 (20 ng/ml), MPL (1 μg/ml), LPS (1 μg/ml) or a phosphorothioate CpG oligonucleotide (4 μM) for 6 hours. Luciferase activity in cell lysates was quantified by luminometry, and results were normalized to the luciferase signal in untreated transfected cells.
The effects of CpG oligonucleotide on κB-dependent luciferase expression were dose- and time-dependent (see FIGS. 1B and 1C). In regard to FIG. 1B, RAW 264.7 cells transiently transfected with a κB-luciferase reporter plasmid were treated 24 hours later with concentrations of phosphorothioate CpG oligonucleotide concentrations ranging from 0.25-8 μM, or a control oligonucleotide (4 μM) for 6 hours. Activation was detected at CpG oligonucleotide concentrations as low as 0.25 μM (FIG. 1B), but not at the lowest concentration tested (0.05 μM) (data not shown). Data shown in FIG. 1B are average luciferase activity in lysates from duplicate wells normalized to luciferase levels in lysates from untreated transfected wells on the same 6-well tissue culture plate. […] In regard to FIG. 1C, RAW 264.7 cells transiently transfected with a kB-Luc and treated 24 hours later with a CpG-containing oligonucleotide (4 μM; open circles), or LPS (1 μg/ml; filled circles). Results shown in FIG. 1C are average of duplicate wells normalized to untreated transfected wells.

The subject of series [3] is CD86 expression on TLR4 mutant BMDDC. Nature of the series: Flow cytometry of cell-surface CD86 on TLR4 mutant (C3H/HeJ) BMDDC. Type of series: cell-based, mouse. Particulars: overnight, oligonucleotide 5 μM, LPS 1 μg/ml, normalized to untreated. As to the method: (§1) Bone marrow was harvested from female mice 6-12 weeks old of various genotypes (C57Bl/6, Balb/c; Charles River; or C3H/HeJ, Jackson Labs). Bone marrow cells were used fresh or were frozen in fetal calf serum (FCS; Summit) containing 10% dimethylsulfoxide and stored at −80° C. Bone-marrow macrophages (BMMO) were prepared as described in Current Protocols in Immunology, supra. Briefly, fresh or frozen bone marrow cells were cultured in RPMI, 10% heat inactivated (30 minutes, 56° C.) fetal calf serum (FCS), 2 mM L-glutamine, 100 μg/ml streptomycin, 100 units/ml penicillin, 50 μM β-mercaptoethanol and 100 U/ml recombinant macrophage colony stimulating factor (M-CSF; R&D Systems). After 24 hours, nonadherent cells were removed to a new dish, and culture continued for 7 days to produce a macrophage monolayer. […]
(§2) BMDDC were treated overnight with adjuvants as indicated, washed, resuspended in cold PBS/2% FBS containing FcBlock (0.25 μg/10^6 cells; Pharmingen), and FITC- and PE-conjugated antibodies (1 μg/10^6 cells) were added 5 minutes later. Cells were incubate with antibodies on ice 30 minutes, washed, and analyzed by flow cytometry on a FACScan (Becton-Dickenson). […] Changes in CD86 expression are assessed based on geometric mean fluorescence of CD86-FITC staining of the live CD11c cells treated with adjuvants normalize to the geometric mean CD86-FITC fluorescence of untreated BMDDC cultures. […]

For series [4], the system named is MAPK pathways, including ERK, JNK and p38. The series is described as follows: Immunoblotting for MAPK pathway phosphorylation (ERK1/2, JNK/c-jun, p38 substrate ATF2). Type of series: cell-based, mouse. Conditions: BMMO, dendritic cells and RAW 264.7; within an hour of stimulation; oligonucleotides 1 μM; data not shown. As to the method: as §1, with “monolayer. Nonadherent BMDDCs were produced by culture in the same medium supplemented with GM-CSF (200 U/ml; Preprotech) rather than M-CSF.” for “monolayer.”
Macrophages were differentiated from bone marrow cells of C57Bl/6 mice as described in Example 1 and then transferred to low serum medium lacking M-CSF for 4 hours. […] The positive result for ERK½ MAPK activation in RAW 264.7 cells and BMMO are in contrast to observations in another mouse macrophage cell line, J774, where ERK phosphorylation was not detected in CpG oligonucleotide-treated cells.
A general note: Immunoblotting shows a protein as a band on a membrane.

Series [5] has as its system CD86 expression on BMDDC. Nature of the series: Flow cytometry of cell-surface CD86 on wild-type (Balb/c) BMDDC. Particulars: overnight, oligonucleotides 5 μM, LPS 1 μg/ml, normalized to untreated. The class given is cell-based, mouse. As to the method:
as §1, §2
In general terms: In flow cytometry, cells or beads pass a laser one at a time.

Series [6] relates to ERK. Particulars: J774 mouse macrophage cell line; cited from earlier work.
In series [7] the test system is MyD88. Nature of the series: κB luciferase assay of RAW 264.7 cells transfected with MyD88 dominant-negative constructs. Conditions: FIG. 3B. The class given is cell-based, mouse. The source says:
(§3) In another set of experiments, three MyD88 constructs lacking the ability to transduce signals were amplified by PCR, and placed under constitutive control of the CMV promoter (pCMV-FLAG vector, Sigma Aldrich). The first construct, MyD88lpr, contains a point mutation F56N in the death domain. The second construct, MyD88-ΔDD, lacks the death domain completely. The third construct, MyD88-THD, lacks both the death domain and the intermediate domain. The DNA was transfected into RAW 264.7 cells or murine embryonic NIH-3T3 cells using a cationic lipid reagent. A luciferase reporter plasmid was cotransfected. […] Cells were then stimulated with CpG oligonucleotides and several control cytokines. Luciferase expression was assayed on a luminometer to determine if the mutant MyD88 protein had affected CpG signaling. Restriction analysis and sequencing results confirmed the presence of the MyD88 constructs (data not shown). […] The MyD88 TIR domain alone was sufficient to block signaling.

For series [8], the system named is IκBα. Nature of the series: Immunoblotting for phosphorylated and total IκBα in RAW 264.7 cells. Type of series: cell-based, mouse. Conditions: 4 μM. As to the method:
Following stimulation, BMMO or RAW 264.7 cells were lysed in 1% Triton X-100, 50 mM Tris, 62.5 mM EDTA (pH 8.0) with CompleteJ protease inhibitor cocktail (Boehringer Mannheim) (Triton lysis buffer). Lysates were boiled in reducing sample buffer, separated on 10% polyacrylamide gels using the NuPAGEJ Bis-Tris electrophoresis system (Novex). Nitrocellulose membranes were probed with antibodies against IκB-α, phosphorylated-IκB-α, (New England BioLabs), or anti-IL-18 (Santa Cruz Biotechnology) according to manufacturer's instructions, and visualized with enhanced chemiluminescence (Amersham).
Lysates were also prepared from untreated RAW 264.7 cells or cells treated with a phosphorothioate CpG oligonucleotide (4 μM) for 5, 10, 20 and 60 minutes as well as a control oligonucleotide lacking CpG motifs for 60 minutes. The lysates were then resolved by electrophoresis, and immunoblotted with antisera to phosphorylated IκBα and total IκBα. […] This activation was detected at the level of IκBα phosphorylation within 10 minutes of CpG oligonucleotide addition, and degradation of IκBα was notable at 20 minutes.

Series [9] deals with MyD88. The series is described as follows: κB luciferase assay of NIH-3T3 cells transfected with MyD88 dominant-negative constructs. The class given is cell-based, murine. Conditions: FIG. 3A.
Text: as §3

With monophosphoiyl lipid A [MPL], in [1], the “Effect of dominant-negative MyD88lpr expression on induced κB-dependent luciferase activity” value was “inhibited”. The κB-dependent luciferase expression result in [2] (6 hours, LPS 1 μg/ml) was “potent activators of NF-κB”. In addition, the “Cell-surface CD86 expression on live CD11c positive cells” value (“Cell-surface CD86 expression” below) in [3] is listed as “no change in CD86 expression”.
For “tccaggacttctctcaggtt (TCCAGGACTTCTCTCAGGTT; DNA, all phosphorothioate, methylation of C not given here) [control oligonucleotide]”, the “Phosphorylation of ERK, JNK and/or the JNK substrate c-jun, and of the p38 MAPK substrate ATF2” value in series [4] is listed as “not”. Also, the κB-dependent luciferase expression entry in series [2] (6 hours, LPS 1 μg/ml) is “did not induce an increase”.
For “tccatgacgttcctgacgtt [CpG oligonucleotide]”, the “Effect of dominant-negative MyD88lpr expression on induced κB-dependent luciferase activity” value in series [1] is recorded as “inhibited”. In addition, in [5], the “Cell-surface CD86 expression” value was “increased cell-surface CD86 expression”. In addition, the ERK phosphorylation result in series [6] is “not detected”. Besides, the “Effect of dominant negative MyD88 constructs (MyD88lpr, MyD88-ΔDD, MyD88-THD) on signaling to κB luciferase reporter” value in series [7] was “specifically and selectively blocks signaling”. Also, in series [8], the “Time at which IκBα phosphorylation was detected after addition” value is not above 10 min and the “Time at which degradation of IκBα was notable” value was determined as 20 min. For the same molecule, the “Effect of dominant negative MyD88 constructs (MyD88lpr, MyD88-ΔDD, MyD88-THD) on signaling to κB luciferase reporter” value in [9] was “specifically and selectively blocks signaling”. Moreover, the “Phosphorylation of ERK, JNK and/or the JNK substrate c-jun, and of the p38 MAPK substrate ATF2” value in series [4] is “observed in all three cell types”. For the same molecule, the “κB-Luc activation at the lowest concentration tested” value in series [2] (RAW 264.7, 0.05 μM, data not shown) is given as “not”. For the same molecule, the “Activation of the reporter gene at 10 μM dose relative to 8 μM” value in series [2] (RAW 264.7, 10 μM, data not shown) is given as “not further enhanced”. Further, in series [2] (RAW 264.7, 6 hours, FIG. 1B), the “Concentration of maximal activation of the reporter gene” value came out at 8 µM and the “Lowest concentration at which κB-Luc activation was detected” value was found to be 0.25 µM. Also, the “Increase of κB-dependent luciferase expression by 2 hours” value in series [2] (RAW 264.7, CpG oligonucleotide 4 μM, LPS 1 μg/ml, FIG. 1C) is listed as “greater than two-fold increase”. For the same molecule, in series [2] (6 hours, LPS 1 μg/ml), the κB-dependent luciferase expression result is on record as “induced κB-dependent luciferase expression, to a level similar to that induced by MPL or LPS”. The “Cell-surface CD86 expression” value in [3] was “an increase in CD86 expression similar to that observed in the wild-type BMDDC”.

B1: IL-1: recombinant mouse interleukin-1β (Endogen) (protein, UniProt P10749 118-269, looked up)
Interleukin-1 beta: VPIRQLHYRLRDEQQKSLVLSDPYELKALHLNGQNINQQVIFSMSFVQGEPSNDKIPVALGLKGKNLYLSCVMKDGTPTLQLESVDPKQYPKKKMEKRFVFNKIEVKSKVEFESAEFPNWYISTSQAEHKPVFLGNNSGQDIIDFTMESVSS
With B1, in series [9], the “Effect of dominant negative MyD88 constructs (MyD88lpr, MyD88-ΔDD, MyD88-THD) on signaling to κB luciferase reporter” value is “did inhibit”. Further, in [2] (6 hours, LPS 1 μg/ml), the κB-dependent luciferase expression result is given as “poor activator”.

B2: IL-18: recombinant mouse interleukin-18 (Biosource) (protein, UniProt P70380 36-192, looked up)
Interleukin-18: NFGRLHCTTAVIRNINDQVLFVDKRQPVFEDMTDIDQSASEPQTRLIIYMYKDSEVRGLAVTLSVKDSKMSTLSCKNKIISFEEMDPPENIDDIQSDLIFFQKRVPGHNKMEFESSLYEGHFLACQKEDDAFKLILKKKDENGDKSVMFTLTNLHQS
Consider B2, for which the κB-dependent luciferase expression entry in [2] (6 hours, LPS 1 μg/ml) is reported as “poor activator”.
